{"source": "patent US9738634B2", "about": "“Heterocyclic amide compound and herbicide” (SYNGENTA PARTICIPATIONS AG, priority 2013, dated 2017)", "assay_type_in_all_cases": "in vivo", "conditions_in_all_cases": "treatment dosage 320 g/ha", "key": {"barnyard grass [1]": {"test_system": "barnyard grass", "assay": "Test Example 1: weedkilling efficacy, preemergent weed treatment in the submerged state; A: barnyard grass", "in_short": "(§1)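 Emulsion diluted with water to the specified per-hectare dosage is applied onto flood water (4 cm) over alluvial soil on the sowing day, with barnyard grass, bulrush and pondweed seeded and rice (2.5-leaf) transplanted; plants grow at 25–30 °C and are rated at 3 weeks.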"}, "bulrush [2]": {"test_system": "bulrush", "assay": "Test Example 1: weedkilling efficacy, preemergent weed treatment in the submerged state; B: bulrush", "in_short": "as §1"}, "oval-leafed pondweed [3]": {"test_system": "oval-leafed pondweed", "assay": "Test Example 1: weedkilling efficacy, preemergent weed treatment in the submerged state; C: oval-leafed pondweed", "in_short": "as §1"}, "transplanted rice": {"test_system": "transplanted rice", "assay": "Test Example 1: preemergent weed treatment in the submerged state, effect on crop; a: transplanted rice", "in_short": "as §1"}, "barnyard grass [4]": {"test_system": "barnyard grass", "assay": "Test Example 2: weedkilling efficacy, growth period weed treatment in the submerged state; A: barnyard grass", "in_short": "(§2)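 First, alluvial soil in pots is flooded to 4 cm and mixed seed is sown. Next, plants grow in a greenhouse at 25 to 30° C until the 1-2 leaf stage. Then diluted emulsion is applied onto the water surface at the given g/ha rate, and injury is assessed after 3 weeks.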"}, "bulrush [5]": {"test_system": "bulrush", "assay": "Test Example 2: weedkilling efficacy, growth period weed treatment in the submerged state; B: bulrush", "in_short": "as §2"}, "oval-leafed pondweed [6]": {"test_system": "oval-leafed pondweed", "assay": "Test Example 2: weedkilling efficacy, growth period weed treatment in the submerged state; C: oval-leafed pondweed", "in_short": "as §2"}, "crabgrass [7]": {"test_system": "crabgrass", "assay": "Test Example 3: weedkilling efficacy through soil treatment; D: crabgrass", "in_short": "(§3)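 Crop and weed responses were judged three weeks after a uniform surface spray of the water-diluted emulsion at the given g/ha rate. Seeds sat beneath about 1.5 cm of sterilized diluvial soil, and boxes stood in a greenhouse at 25 to 30° C.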"}, "green foxtail [8]": {"test_system": "green foxtail", "assay": "Test Example 3: weedkilling efficacy through soil treatment; E: green foxtail", "in_short": "as §3"}, "barnyard grass [9]": {"test_system": "barnyard grass", "assay": "Test Example 3: weedkilling efficacy through soil treatment; F: barnyard grass", "in_short": "as §3"}, "wild oat [10]": {"test_system": "wild oat", "assay": "Test Example 3: weedkilling efficacy through soil treatment; G: wild oat", "in_short": "as §3"}, "black-grass [11]": {"test_system": "black-grass", "assay": "Test Example 3: weedkilling efficacy through soil treatment; H: black-grass", "in_short": "as §3"}, "Italian ryegrass [12]": {"test_system": "Italian ryegrass", "assay": "Test Example 3: weedkilling efficacy through soil treatment; I: Italian ryegrass", "in_short": "as §3"}, "common wind-grass [13]": {"test_system": "common wind-grass", "assay": "Test Example 3: weedkilling efficacy through soil treatment; J: common wind-grass", "in_short": "as §3"}, "Indian mallow [14]": {"test_system": "Indian mallow", "assay": "Test Example 3: weedkilling efficacy through soil treatment; K: Indian mallow", "in_short": "as §3"}, "redroot pigweed [15]": {"test_system": "redroot pigweed", "assay": "Test Example 3: weedkilling efficacy through soil treatment; L: redroot pigweed", "in_short": "as §3"}, "fig-leafed goosefoot [16]": {"test_system": "fig-leafed goosefoot", "assay": "Test Example 3: weedkilling efficacy through soil treatment; M: fig-leafed goosefoot", "in_short": "as §3"}, "chickweed [17]": {"test_system": "chickweed", "assay": "Test Example 3: weedkilling efficacy through soil treatment; N: chickweed", "in_short": "as §3"}, "directly sown rice [18]": {"test_system": "directly sown rice", "assay": "Test Example 3: soil treatment, effect on crop; b: directly sown rice", "in_short": "as §3"}, "corn [19]": {"test_system": "corn", "assay": "Test Example 3: soil treatment, effect on crop; c: corn", "in_short": "as §3"}, "soybean [20]": {"test_system": "soybean", "assay": "Test Example 3: soil treatment, effect on crop; d: soybean", "in_short": "as §3"}, "wheat [21]": {"test_system": "wheat", "assay": "Test Example 3: soil treatment, effect on crop; e: wheat", "in_short": "as §3"}, "beet [22]": {"test_system": "beet", "assay": "Test Example 3: soil treatment, effect on crop; f: beet", "in_short": "as §3"}, "rapeseed [23]": {"test_system": "rapeseed", "assay": "Test Example 3: soil treatment, effect on crop; g: rapeseed", "in_short": "as §3"}, "crabgrass [24]": {"test_system": "crabgrass", "assay": "Test Example 4: weedkilling efficacy by foliar treatment; D: crabgrass", "in_short": "(§4)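 Seeds are spot-sown into sterilized diluvial soil and covered with about 1.5 cm of soil. After 14 days' greenhouse growth at 25 to 30° C, plants are sprayed on stems and leaves with diluted emulsion at the stated g/ha rate, then scored at 3 weeks.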"}, "green foxtail [25]": {"test_system": "green foxtail", "assay": "Test Example 4: weedkilling efficacy by foliar treatment; E: green foxtail", "in_short": "as §4"}, "barnyard grass [26]": {"test_system": "barnyard grass", "assay": "Test Example 4: weedkilling efficacy by foliar treatment; F: barnyard grass", "in_short": "as §4"}, "wild oat [27]": {"test_system": "wild oat", "assay": "Test Example 4: weedkilling efficacy by foliar treatment; G: wild oat", "in_short": "as §4"}, "black-grass [28]": {"test_system": "black-grass", "assay": "Test Example 4: weedkilling efficacy by foliar treatment; H: black-grass", "in_short": "as §4"}, "Italian ryegrass [29]": {"test_system": "Italian ryegrass", "assay": "Test Example 4: weedkilling efficacy by foliar treatment; I: Italian ryegrass", "in_short": "as §4"}, "common wind-grass [30]": {"test_system": "common wind-grass", "assay": "Test Example 4: weedkilling efficacy by foliar treatment; J: common wind-grass", "in_short": "as §4"}, "Indian mallow [31]": {"test_system": "Indian mallow", "assay": "Test Example 4: weedkilling efficacy by foliar treatment; K: Indian mallow", "in_short": "as §4"}, "redroot pigweed [32]": {"test_system": "redroot pigweed", "assay": "Test Example 4: weedkilling efficacy by foliar treatment; L: redroot pigweed", "in_short": "as §4"}, "fig-leafed goosefoot [33]": {"test_system": "fig-leafed goosefoot", "assay": "Test Example 4: weedkilling efficacy by foliar treatment; M: fig-leafed goosefoot", "in_short": "as §4"}, "chickweed [34]": {"test_system": "chickweed", "assay": "Test Example 4: weedkilling efficacy by foliar treatment; N: chickweed", "in_short": "as §4"}, "catchweed": {"test_system": "catchweed", "assay": "Test Example 4: weedkilling efficacy by foliar treatment; O: catchweed", "in_short": "as §4"}, "birds-eye speedwell": {"test_system": "birds-eye speedwell", "assay": "Test Example 4: weedkilling efficacy by foliar treatment; p: birds-eye speedwell", "in_short": "as §4"}, "directly sown rice [35]": {"test_system": "directly sown rice", "assay": "Test Example 4: foliar treatment, effect on crop; b: directly sown rice", "in_short": "as §4"}, "corn [36]": {"test_system": "corn", "assay": "Test Example 4: foliar treatment, effect on crop; c: corn", "in_short": "as §4"}, "soybean [37]": {"test_system": "soybean", "assay": "Test Example 4: foliar treatment, effect on crop; d: soybean", "in_short": "as §4"}, "wheat [38]": {"test_system": "wheat", "assay": "Test Example 4: foliar treatment, effect on crop; e: wheat", "in_short": "as §4"}, "beet [39]": {"test_system": "beet", "assay": "Test Example 4: foliar treatment, effect on crop; f: beet", "in_short": "as §4"}, "rapeseed [40]": {"test_system": "rapeseed", "assay": "Test Example 4: foliar treatment, effect on crop; g: rapeseed", "in_short": "as §4"}}}
{"smiles": "CC1=C(c2ccccc2)C(=O)N(C(C)(C)C(=O)Nc2cc(F)nc(F)c2)CO1", "note": "[B-4-04]", "values": [{"measurement": "A (barnyard grass) weedkilling efficacy grade", "setting": "barnyard grass [1]", "value": "5 (weed kill ratio 90% or more, (practically complete withering))"}, {"measurement": "B (bulrush) weedkilling efficacy grade", "setting": "bulrush [2]", "value": "5 (weed kill ratio 90% or more, (practically complete withering))"}, {"measurement": "C (oval-leafed pondweed) weedkilling efficacy grade", "setting": "oval-leafed pondweed [3]", "value": "5 (weed kill ratio 90% or more, (practically complete withering))"}, {"measurement": "a (transplanted rice) effect on crop grade", "setting": "transplanted rice", "value": "0 (weed kill ratio 5% or less (practically no effect))"}, {"measurement": "A (barnyard grass) weedkilling efficacy grade", "setting": "barnyard grass [4]", "value": "5 (weed kill ratio 90% or more, (practically complete withering))"}, {"measurement": "B (bulrush) weedkilling efficacy grade", "setting": "bulrush [5]", "value": "5 (weed kill ratio 90% or more, (practically complete withering))"}, {"measurement": "C (oval-leafed pondweed) weedkilling efficacy grade", "setting": "oval-leafed pondweed [6]", "value": "5 (weed kill ratio 90% or more, (practically complete withering))"}, {"measurement": "D (crabgrass) weedkilling efficacy grade", "setting": "crabgrass [7]", "value": "5 (weed kill ratio 90% or more, (practically complete withering))"}, {"measurement": "E (green foxtail) weedkilling efficacy grade", "setting": "green foxtail [8]", "value": "5 (weed kill ratio 90% or more, (practically complete withering))"}, {"measurement": "F (barnyard grass) weedkilling efficacy grade", "setting": "barnyard grass [9]", "value": "5 (weed kill ratio 90% or more, (practically complete withering))"}, {"measurement": "G (wild oat) weedkilling efficacy grade", "setting": "wild oat [10]", "value": "0 (weed kill ratio 5% or less (practically no effect))"}, {"measurement": "H (black-grass) weedkilling efficacy grade", "setting": "black-grass [11]", "value": "5 (weed kill ratio 90% or more, (practically complete withering))"}, {"measurement": "I (Italian ryegrass) weedkilling efficacy grade", "setting": "Italian ryegrass [12]", "value": "5 (weed kill ratio 90% or more, (practically complete withering))"}, {"measurement": "J (common wind-grass) weedkilling efficacy grade", "setting": "common wind-grass [13]", "value": "5 (weed kill ratio 90% or more, (practically complete withering))"}, {"measurement": "K (Indian mallow) weedkilling efficacy grade", "setting": "Indian mallow [14]", "value": "0 (weed kill ratio 5% or less (practically no effect))"}, {"measurement": "L (redroot pigweed) weedkilling efficacy grade", "setting": "redroot pigweed [15]", "value": "3 (weed kill ratio 40% or more, less than 70%)"}, {"measurement": "M (fig-leafed goosefoot) weedkilling efficacy grade", "setting": "fig-leafed goosefoot [16]", "value": "3 (weed kill ratio 40% or more, less than 70%)"}, {"measurement": "N (chickweed) weedkilling efficacy grade", "setting": "chickweed [17]", "value": "4 (weed kill ratio 70% or more, less than 90%)"}, {"measurement": "b (directly sown rice) effect on crop grade", "setting": "directly sown rice [18]", "value": "3 (weed kill ratio 40% or more, less than 70%)"}, {"measurement": "c (corn) effect on crop grade", "setting": "corn [19]", "value": "0 (weed kill ratio 5% or less (practically no effect))"}, {"measurement": "d (soybean) effect on crop grade", "setting": "soybean [20]", "value": "0 (weed kill ratio 5% or less (practically no effect))"}, {"measurement": "e (wheat) effect on crop grade", "setting": "wheat [21]", "value": "0 (weed kill ratio 5% or less (practically no effect))"}, {"measurement": "f (beet) effect on crop grade", "setting": "beet [22]", "value": "2 (weed kill ratio 20% or more, less than 40%)"}, {"measurement": "g (rapeseed) effect on crop grade", "setting": "rapeseed [23]", "value": "4 (weed kill ratio 70% or more, less than 90%)"}, {"measurement": "D (crabgrass) weedkilling efficacy grade", "setting": "crabgrass [24]", "value": "4 (weed kill ratio 70% or more, less than 90%)"}, {"measurement": "E (green foxtail) weedkilling efficacy grade", "setting": "green foxtail [25]", "value": "4 (weed kill ratio 70% or more, less than 90%)"}, {"measurement": "F (barnyard grass) weedkilling efficacy grade", "setting": "barnyard grass [26]", "value": "4 (weed kill ratio 70% or more, less than 90%)"}, {"measurement": "G (wild oat) weedkilling efficacy grade", "setting": "wild oat [27]", "value": "2 (weed kill ratio 20% or more, less than 40%)"}, {"measurement": "H (black-grass) weedkilling efficacy grade", "setting": "black-grass [28]", "value": "4 (weed kill ratio 70% or more, less than 90%)"}, {"measurement": "I (Italian ryegrass) weedkilling efficacy grade", "setting": "Italian ryegrass [29]", "value": "4 (weed kill ratio 70% or more, less than 90%)"}, {"measurement": "J (common wind-grass) weedkilling efficacy grade", "setting": "common wind-grass [30]", "value": "4 (weed kill ratio 70% or more, less than 90%)"}, {"measurement": "K (Indian mallow) weedkilling efficacy grade", "setting": "Indian mallow [31]", "value": "5 (weed kill ratio 90% or more, (practically complete withering))"}, {"measurement": "L (redroot pigweed) weedkilling efficacy grade", "setting": "redroot pigweed [32]", "value": "3 (weed kill ratio 40% or more, less than 70%)"}, {"measurement": "M (fig-leafed goosefoot) weedkilling efficacy grade", "setting": "fig-leafed goosefoot [33]", "value": "4 (weed kill ratio 70% or more, less than 90%)"}, {"measurement": "N (chickweed) weedkilling efficacy grade", "setting": "chickweed [34]", "value": "3 (weed kill ratio 40% or more, less than 70%)"}, {"measurement": "O (catchweed) weedkilling efficacy grade", "setting": "catchweed", "value": "4 (weed kill ratio 70% or more, less than 90%)"}, {"measurement": "P (birds-eye speedwell) weedkilling efficacy grade", "setting": "birds-eye speedwell", "value": "4 (weed kill ratio 70% or more, less than 90%)"}, {"measurement": "b (directly sown rice) effect on crop grade", "setting": "directly sown rice [35]", "value": "4 (weed kill ratio 70% or more, less than 90%)"}, {"measurement": "c (corn) effect on crop grade", "setting": "corn [36]", "value": "1 (weed kill ratio 5% or more, less than 20%)"}, {"measurement": "d (soybean) effect on crop grade", "setting": "soybean [37]", "value": "1 (weed kill ratio 5% or more, less than 20%)"}, {"measurement": "e (wheat) effect on crop grade", "setting": "wheat [38]", "value": "4 (weed kill ratio 70% or more, less than 90%)"}, {"measurement": "f (beet) effect on crop grade", "setting": "beet [39]", "value": "4 (weed kill ratio 70% or more, less than 90%)"}, {"measurement": "g (rapeseed) effect on crop grade", "setting": "rapeseed [40]", "value": "3 (weed kill ratio 40% or more, less than 70%)"}]}
